Where two headings read alike, the source gives them in different places.
Tests used:
[1] = system: K+ channel of rabbit mesenteric artery (RMA); assay: K+ channel antagonism: inhibition of pinacidil-induced relaxation of norepinephrine-contracted rabbit mesenteric artery (RMA) rings; type: cell-based
Description: The results for potassium channel blocking were obtained by using isolated rabbit mesenteric artery (RMA) procedures. Norepinephrine (5 μM) was used to contract the RMA rings twice, with an hour separating the two contractions. During this hour the tissues equilibrated in physiological salt solution at a resting tension of 1 gram. Upon the plateau of the second contraction 1 μM pinacidil was added to all tissues and the resulting relaxation time course was studied for thirty minutes. […] By studying the ability of the test compounds to inhibit this pinacidil-induced relaxation, the degree of potassium antagonism could be determined. The compounds were applied to the tissues for one hour between the two contractions and the pinacidil-induced relaxation was studied in the continuing presence of the compounds. Thus, the total time of pretreatment with the test compound was 75 minutes before the addition of pinacidil. […]
Data for K^+ channel antagonist activity on rabbit mesenteric artery (RMA) and natriuretic efficacy after […] (IP) administration to rats are collected in Tables III and IV. It was known, for example, that a compound where both methyl groups on the benzylic carbon of Example 9 had been removed was a weak PCO rather than a K^+ channel antagonist. Similarly a compound in which the phenyl was attached directly to the guanidine nitrogen was also a K^+ channel agonist.
^a This is a measure of a compound's ability to inhibit the relaxatio
of norepinephrine (5 μM) contracted rabbit mesenteric artery rings by
pinacidil (1 μM). It is expressed as percent inhibition (mean ± sem
at an inhibitor concentration of 5 μM. Compounds with 65% or g greater
inhibition at 5 μM are considered to be active, with 2065\% inhibition

K+ channel = conditions: 1 μM; norepinephrine-contracted RMA rings; cited from earlier work
[2] = Diuretic screen: 5 h net natriuretic efficacy (urinary Na+ excretion) in rats; type: in vivo, female Harlan Sprague-Dawley rats
[3] = Oryctolagus cuniculus, 0.25 h, Table III, inhibition of relaxation by pinacidil 1 μM at 15 min, mean ± sem (number of rings), >=65% considered active, <20% inactive, read-out: RMA K+ Channel Antagonism % I at 5 μM
[4] = Oryctolagus cuniculus, Table III footnote, read-out: RMA K+ channel antagonism, Percent inhibition at 1 μM
[5] = Oryctolagus cuniculus, Table IV, lowest concentration giving >20% inhibition or lowest tested, read-out: RMA K+ Channel Antagonism % I (conc. μM)
[6] = Oryctolagus cuniculus, Table III footnote, read-out: RMA K+ channel antagonism, Percent inhibition at 0.5 μM

With `N#CN=C(Nc1cccnc1)NC(c1ccccc1)C1CC1` (centres unmarked) [Compound 17, N"-Cyano-N-(3-pyridyl)-N'-phenylcyclopropylmethylguanidine] the inhibition at 5 µM [1, 3] was 93.3 ± 2.2%.
In the case of `CCC(NC(=NC#N)Nc1cccnc1)c1ccccc1` (centres unmarked) [Compound 2, N"-Cyano-N-(3-pyridyl)-N'-(1-phenyl)propylguanidine], the inhibition at 5 µM [1, 3] is reported as 78.8 ± 3.9% and the inhibition at 1 µM [1, 4] is reported as 25.6 ± 17.2%.
In the case of `CC(N/C(=N\C#N)Nc1ccncc1)C(C)(C)C` (centres unmarked) [Pinacidil], the inhibition at 5 µM [1, 3] is listed as 0%, the “K+ channel dependent vasodilation (in words)” value (K+ channel) is listed as “maximal K^+ channel dependent vasodilation” and the “diuretic response (in words)” value ([2]; 5 mg/kg oral dosage) is listed as “Antidiuresis”. For the same molecule, the “5 h Net Natriuretic Efficacy” value ([2]; Table III, 5 mg/kg oral dosage (footnote j)) was -60 μEq Na+/mg/kg.
In the case of `CCC(NC(=NC#N)Nc1cccnc1)c1cccc(F)c1` (centres unmarked) [Compound 38], the inhibition at 0.5 µM [1, 5] is reported as 68.6%.
With `CC(NC(=NC#N)Nc1cccnc1)c1ccc(Cl)c(Cl)c1` (centres unmarked) [Compound 23] the inhibition at 5 µM [1, 3] was 90.8 ± 2.8%.
With `CC(C)(NC(=NC#N)Nc1cccnc1)c1ccccc1` [Compound 9] the inhibition at 5 µM [1, 3] was 89.5 ± 3.6%.
`CC[C@@H](NC(=NC#N)Nc1ccc(N)nc1)c1ccccc1` [Compound 44, (R)-N-(6-Amino-3-pyridyl)-N"-cyano-N'-(1-phenylpropyl)guanidine] gave an inhibition at 5 µM [1, 5] of 60%.
`CCC(NC(=NC#N)Nc1cccnc1)c1ccccc1F` (centres unmarked) [Compound 43] gave an inhibition at 0.05 µM [1, 5] of 30%.
For `C[C@H](NC(=NC#N)Nc1cccnc1)c1ccccc1` [Compound 8], the inhibition at 5 µM [1, 3] was 22.1 ± 21.2%.
With `CCCC(NC(=NC#N)Nc1cccnc1)c1ccccc1` (centres unmarked) [Compound 28] the inhibition at 5 µM [1, 3] was 85.2 ± 4.8%.
For `N#CN=C(Nc1cccnc1)NC1(c2cccc(F)c2)CCC1` [Compound 42], the inhibition at 0.05 µM [1, 5] was 50%.
`CC(NC(=NC#N)Nc1cccnc1)c1cc(Cl)ccc1Cl` (centres unmarked) [Compound 24] gave an inhibition at 5 µM [1, 3] of 86.9 ± 4%.
Work on `CC(NC(=NC#N)Nc1cccnc1)c1cc(F)cc(F)c1` (centres unmarked) [Compound 40] yielded an inhibition at 0.5 µM [1, 5] of 55.5%.
Work on `CC(NC(=NC#N)Nc1cccnc1)c1cccc(C(F)(F)F)c1` (centres unmarked) [Compound 21] yielded an inhibition at 5 µM [1, 3] of 85.3 ± 3.2%.
With `CCC(NC(=NC#N)Nc1ccc[n+]([O-])c1)c1ccccc1` (centres unmarked) [Compound 54, N"-Cyano-N'-(1-phenylpropyl)-N-(3-pyridyl)guanidine, pyridine N-oxide] the inhibition at 5 µM [1, 5] was 15.4%.
`Cc1ccccc1C(C)NC(=NC#N)Nc1cccnc1` (centres unmarked) [Compound 14] showed an inhibition at 5 µM [1, 3] of 58.7 ± 8.3%.
With `CC(C)Nc1ccc(NC(=NC#N)N[C@H](C)c2ccccc2)cn1` [Compound 59] the inhibition at 5 µM [1, 5] was 8.5%.
Molecule `N#CN=C(Nc1cccnc1)NC1(c2ccccc2)CC1` [Compound 63] has an inhibition at 5 µM [1, 5] of 86%.
`Cc1cccc(C(C)NC(=NC#N)Nc2cccnc2)c1` (centres unmarked) [Compound 15] showed an inhibition at 5 µM [1, 3] of 82 ± 3.9%.
Work on `N#CN=C(Nc1ccc(N)nc1)NC1(c2ccccc2)CCC1` [Compound 46, N"-Cyano-N-(6-amino-3-pyridyl)-N'-(1-phenylcyclobutyl)guanidine] yielded an inhibition at 0.5 µM [1, 5] of 45%.
Molecule `N#CN=C(Nc1cccnc1)NC1(c2ccccc2)CCC1` [Compound 51, N"-Cyano-N-(3-pyridyl)-N'-(1-phenylcyclobutyl)guanidine] has an inhibition at 0.5 µM [1, 5] of 82.9%.
Molecule `COCC(NC(=NC#N)Nc1cccnc1)c1ccccc1` (centres unmarked) [Compound 16] has an inhibition at 5 µM [1, 3] of 51.1 ± 11.6%.
`CCC(NC(=NC#N)Nc1cccnc1)c1cccc(Br)c1` (centres unmarked) [Compound 39] gave an inhibition at 0.5 µM [1, 5] of 87.2%.
For `N#CN=C(Nc1cccnc1)NC1(c2cccc(Cl)c2F)CCC1` [Compound 32], the inhibition at 0.05 µM [1, 5] was 66%.
With `N#CN=C(Nc1cccnc1)NC1(c2ccccc2)CC=CC1` [Compound 3, N"-Cyano-N'-(1-phenylcyclopent-3-enyl)-N-(3-pyridyl)guanidine] the inhibition at 5 µM [1, 3] was 91%.
`CN(C)c1ccc(NC(=NC#N)N[C@H](CO)c2ccccc2)cn1` [Compound 37] showed an inhibition at 5 µM [1, 5] of 6.6%.
For `N#CN=C(Nc1cccnc1)NC(c1ccccc1)C1CCC1` (centres unmarked) [Compound 19], the inhibition at 5 µM [1, 3] was 96 ± 2.1%.
Work on `N#CN=C(Nc1cccnc1)NC(c1ccccc1)C1CCCC1` (centres unmarked) [Compound 18] yielded an inhibition at 5 µM [1, 3] of 88.1 ± 2%.
`CC(NC(=NC#N)Nc1cccnc1)c1ccccc1Cl` (centres unmarked) [Compound 26] showed an inhibition at 5 µM [1, 3] of 74.7 ± 2.7%.
For `C[C@@H](NC(=NC#N)Nc1cccnc1)c1ccccc1` [Compound 1, (R)-N"-Cyano-N-(3-pyridyl)-N'-(1-phenyl)ethylguanidine], the inhibition at 5 µM [1, 3] was 86.3 ± 5%, the inhibition at 1 µM [1, 4] was 17.1% and the inhibition at 2.5 µM ([1]; Oryctolagus cuniculus, Table III footnote, 2.5 μM, read-out: RMA K+ channel antagonism, Percent inhibition at 2.5 μM) was 88.9 ± 11.2%.
Work on `C[C@@H](NC(=NC#N)Nc1ccc(Cl)nc1)c1ccccc1` [Compound 34] yielded an inhibition at 1 µM [1, 5] of 49.5%.
With `CC[C@H](NC(=NC#N)Nc1cccnc1)c1ccccc1` [Compound 20] the inhibition at 5 µM [1, 3] was 13.9 ± 7.2%.
Work on `N#CN=C(Nc1cccnc1)N[C@H](CO)c1ccccc1` [Compound 27] yielded an inhibition at 5 µM [1, 3] of 92.5 ± 3.1%.
For `CC[C@@H](NC(=NC#N)Nc1ccc(N(C)C)nc1)c1ccccc1` [Compound 53, (R)-N"-Cyano-N'-(1-phenylpropyl)-N-[6-(dimethylamino)-3-pyridyl]guanidine], the inhibition at 5 µM [1, 5] was 4.1%.
`CC[C@@H](NC(=NC#N)Nc1cccnc1)c1ccccc1` [Compound 22, (R) N"-Cyano-N-(3-pyridyl)-N'-(1-phenylpropyl)guanidine] gave an inhibition at 5 µM [1, 3] of 89 ± 3.2%, an inhibition at 0.1 µM ([1]; Oryctolagus cuniculus, Table III footnote, 0.1 μM, read-out: RMA K+ channel antagonism, Percent inhibition at 0.1 μM) of 5 ± 2% and an inhibition at 0.25 µM ([1]; Oryctolagus cuniculus, Table III footnote, 0.25 μM, read-out: RMA K+ channel antagonism, Percent inhibition at 0.25 μM) of 52 ± 1%. It also gave an inhibition at 0.5 µM [1, 6] of 81.5 ± 5.9%.
In the case of `CCC(NC(=NC#N)Nc1cccnc1)c1cccc(I)c1` (centres unmarked) [Compound 41], the inhibition at 5 µM [1, 5] is reported as 90.1%.
In the case of `CC(NC(=NC#N)Nc1ccc(N)nc1)c1ccccc1` (centres unmarked) [Compound 36], the “RMA K+ Channel Antagonism % I (conc. μM)” value ([1]; Table IV, concentration not printed (empty parentheses)) is reported as 66.5%.
Work on `N#CN=C(Nc1cccnc1)N[C@@H](CO)c1ccccc1` [Compound 4, (R)-N"-Cyano-N'-(2-hydroxy-1-phenylethyl)-N-(3-pyridyl)guanidine] yielded an inhibition at 5 µM [1, 3] of 2.6 ± 1.7%.
`CC(C)(C)C(NC(=NC#N)Nc1cccnc1)c1ccccc1` (centres unmarked) [Compound 13] gave an inhibition at 5 µM [1, 3] of 83.2 ± 12% and an inhibition at 0.5 µM [1, 6] of 82 ± 1.8%.
For `N#CN=C(Nc1cccnc1)NC1(c2cccc(Br)c2)CCC1` [Compound 31], the inhibition at 0.05 µM [1, 5] was 50%.
Work on `CC(C)C(NC(=NC#N)Nc1cccnc1)c1ccccc1` (centres unmarked) [Compound 12] yielded an inhibition at 5 µM [1, 3] of 85.5 ± 0.6%, an inhibition at 0.5 µM [1, 6] of 43.6% and an inhibition at 1 µM [1, 4] of 78.2 ± 1.9%.
Work on `CCN(CC)c1ccc(NC(=NC#N)N[C@H](C)c2ccccc2)cn1` [Compound 33] yielded an inhibition at 5 µM [1, 5] of 10.8%.
With `CCC(NC(=NC#N)Nc1cccnc1)c1cccc(Cl)c1` (centres unmarked) [Compound 52] the inhibition at 0.5 µM [1, 5] was 94%.
Molecule `N#CN=C(Nc1cccnc1)NC1(c2cccc(Cl)c2)CCC1` [Compound 45, N'-[1-(3-Chlorophenyl)cyclobutyl]-N"-cyano-N-(3-pyridyl)guanidine] has an inhibition at 0.05 µM [1, 5] of 91%.
`COCCCNc1ccc(NC(=NC#N)N[C@H](C)c2ccccc2)cn1` [Compound 57] showed an inhibition at 5 µM [1, 5] of 7.8%.
Work on `CC(NC(=NC#N)Nc1cccnc1)c1cccc(Cl)c1` (centres unmarked) [Compound 25] yielded an inhibition at 5 µM [1, 3] of 89.9 ± 0.1%.
`C[C@@H](NC(=NC#N)Nc1ccc[n+]([O-])c1)c1ccccc1` [Compound 55, (R)-N"-Cyano-N'-(1-phenylethyl)-N-(3-pyridyl)guanidine, pyridine N-oxide] showed an inhibition at 5 µM [1, 5] of 16.3%.
Work on `CNc1ccc(NC(=NC#N)NC(C)c2ccccc2)cn1` (centres unmarked) [Compound 29] yielded an inhibition at 5 µM [1, 5] of 63.4%.
`N#CN=C(Nc1cccnc1)NC1(c2ccccc2)CCCC1` [Compound 11] gave an inhibition at 5 µM [1, 3] of 90.4 ± 2.3% and an inhibition at 0.5 µM [1, 6] of 78.8 ± 4.4%.
Molecule `CCNc1ccc(NC(=NC#N)N[C@H](C)c2ccccc2)cn1` [Compound 56] has an inhibition at 5 µM [1, 5] of 19.1%.
`CC(NC(=NC#N)Nc1cccnc1)c1ccccc1` (racemic) [Compound 7, N"-Cyano-N-(3-pyridyl)-N'-(1-phenyl)ethylguanidine] gave an inhibition at 5 µM [1, 3] of 65.3 ± 10.2%.
Work on `CC(NC(=NC#N)Nc1cccnc1)c1cccc(F)c1F` (centres unmarked) [Compound 58] yielded an inhibition at 0.5 µM [1, 5] of 92.1%.
Work on `N#CN=C(Nc1cccnc1)NC1(c2cccc(F)c2F)CCC1` [Compound 48] yielded an inhibition at 0.05 µM [1, 5] of 45%.
Molecule `CCC(NC(=NC#N)Nc1ccc(NC(C)=O)nc1)c1ccccc1` (centres unmarked) [Compound 30] has an inhibition at 5 µM [1, 5] of 0%.
For `N#CN=C(Nc1ccc(N)nc1)NC1(c2cccc(F)c2)CCC1` [Compound 47], the inhibition at 0.05 µM [1, 5] was 79%.
Work on `C[C@@H](NC(=NC#N)Nc1ccc(N(C)C)nc1)c1ccccc1` [Compound 35] yielded an inhibition at 5 µM [1, 5] of 10.6%.
`CC(NC(=NC#N)Nc1cccnc1)c1cccc(F)c1` (centres unmarked) [Compound 50] showed an inhibition at 5 µM [1, 5] of 94.6%.
`N#CN=C(Nc1cccnc1)NC1(c2ccccc2)CCCCC1` [Compound 10] gave an inhibition at 5 µM [1, 3] of 85.5 ± 2.2%.

— patent US5567722A, “Cyanoguanidines as K-channel blockers” (The Upjohn Company, priority 1995, dated 1996)
